Activity calls are given as the source filed them. The rule behind the calls is not given here.
Test system: CCRIS mutagenicity, Ames/micronucleus/aberration tests
Assay: CCRIS mutagenicity studies
Conditions: Test System: AMES SALMONELLA TYPHIMURIUM, Method: PREINCUBATION

Measured: mutagenic call

COc1cc2c(cc1OC)[C@@]13CCN4CC5=CCO[C@H]6CC(=O)N2[C@H]1[C@H]6[C@H]5C[C@H]43
inactive: Strain/Indicator: TA98, Metabolic Activation: HAMSTER, LIVER, S-9, AROCLOR 1254 (10%) inactive; negative | Strain/Indicator: TA98, Metabolic Activation: NONE inactive; negative | Strain/Indicator: TA98, Metabolic Activation: RAT, LIVER, S-9, AROCLOR 1254 (10%) inactive; negative | Strain/Indicator: TA100, Metabolic Activation: HAMSTER, LIVER, S-9, AROCLOR 1254 (10%) inactive; negative | Strain/Indicator: TA100, Metabolic Activation: NONE inactive; negative | Strain/Indicator: TA100, Metabolic Activation: RAT, LIVER, S-9, AROCLOR 1254 (10%) inactive; negative | Strain/Indicator: TA1535, Metabolic Activation: HAMSTER, LIVER, S-9, AROCLOR 1254 (10%) inactive; negative | Strain/Indicator: TA1535, Metabolic Activation: NONE inactive; negative | Strain/Indicator: TA1535, Metabolic Activation: RAT, LIVER, S-9, AROCLOR 1254 (10%) inactive; negative | Strain/Indicator: TA1537, Metabolic Activation: HAMSTER, LIVER, S-9, AROCLOR 1254 (10%) inactive; negative | Strain/Indicator: TA1537, Metabolic Activation: NONE inactive; negative | Strain/Indicator: TA1537, Metabolic Activation: RAT, LIVER, S-9, AROCLOR 1254 (10%) inactive; negative

— PubChem BioAssay AID1259407 (Chemical Carcinogenesis Research Information System (CCRIS), 2018)
